Our source for the IC50 values is patent publication US9546164B2 (GENENTECH, INC., priority 2013, dated 2017).

pIC50: −log10 of the molar value. Counter-ions that a name gives are not always drawn.

For one assay, the target named is hNav1.7 (Homo sapiens (Human), UniProt Q15858). As to the kind of experiment: Tritiated sulfonamide competitive binding to membranes from cells expressing hNav1.7 and the β1 subunit.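 Note: Filter-bound radioactivity counted by liquid scintillation, nonspecific binding defined with excess unlabelled ligand, IC50 fitted to percent inhibition of specific binding.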
Chain of hNav1.7 (Q15858 other isoform, or with tags, fused parts or gaps): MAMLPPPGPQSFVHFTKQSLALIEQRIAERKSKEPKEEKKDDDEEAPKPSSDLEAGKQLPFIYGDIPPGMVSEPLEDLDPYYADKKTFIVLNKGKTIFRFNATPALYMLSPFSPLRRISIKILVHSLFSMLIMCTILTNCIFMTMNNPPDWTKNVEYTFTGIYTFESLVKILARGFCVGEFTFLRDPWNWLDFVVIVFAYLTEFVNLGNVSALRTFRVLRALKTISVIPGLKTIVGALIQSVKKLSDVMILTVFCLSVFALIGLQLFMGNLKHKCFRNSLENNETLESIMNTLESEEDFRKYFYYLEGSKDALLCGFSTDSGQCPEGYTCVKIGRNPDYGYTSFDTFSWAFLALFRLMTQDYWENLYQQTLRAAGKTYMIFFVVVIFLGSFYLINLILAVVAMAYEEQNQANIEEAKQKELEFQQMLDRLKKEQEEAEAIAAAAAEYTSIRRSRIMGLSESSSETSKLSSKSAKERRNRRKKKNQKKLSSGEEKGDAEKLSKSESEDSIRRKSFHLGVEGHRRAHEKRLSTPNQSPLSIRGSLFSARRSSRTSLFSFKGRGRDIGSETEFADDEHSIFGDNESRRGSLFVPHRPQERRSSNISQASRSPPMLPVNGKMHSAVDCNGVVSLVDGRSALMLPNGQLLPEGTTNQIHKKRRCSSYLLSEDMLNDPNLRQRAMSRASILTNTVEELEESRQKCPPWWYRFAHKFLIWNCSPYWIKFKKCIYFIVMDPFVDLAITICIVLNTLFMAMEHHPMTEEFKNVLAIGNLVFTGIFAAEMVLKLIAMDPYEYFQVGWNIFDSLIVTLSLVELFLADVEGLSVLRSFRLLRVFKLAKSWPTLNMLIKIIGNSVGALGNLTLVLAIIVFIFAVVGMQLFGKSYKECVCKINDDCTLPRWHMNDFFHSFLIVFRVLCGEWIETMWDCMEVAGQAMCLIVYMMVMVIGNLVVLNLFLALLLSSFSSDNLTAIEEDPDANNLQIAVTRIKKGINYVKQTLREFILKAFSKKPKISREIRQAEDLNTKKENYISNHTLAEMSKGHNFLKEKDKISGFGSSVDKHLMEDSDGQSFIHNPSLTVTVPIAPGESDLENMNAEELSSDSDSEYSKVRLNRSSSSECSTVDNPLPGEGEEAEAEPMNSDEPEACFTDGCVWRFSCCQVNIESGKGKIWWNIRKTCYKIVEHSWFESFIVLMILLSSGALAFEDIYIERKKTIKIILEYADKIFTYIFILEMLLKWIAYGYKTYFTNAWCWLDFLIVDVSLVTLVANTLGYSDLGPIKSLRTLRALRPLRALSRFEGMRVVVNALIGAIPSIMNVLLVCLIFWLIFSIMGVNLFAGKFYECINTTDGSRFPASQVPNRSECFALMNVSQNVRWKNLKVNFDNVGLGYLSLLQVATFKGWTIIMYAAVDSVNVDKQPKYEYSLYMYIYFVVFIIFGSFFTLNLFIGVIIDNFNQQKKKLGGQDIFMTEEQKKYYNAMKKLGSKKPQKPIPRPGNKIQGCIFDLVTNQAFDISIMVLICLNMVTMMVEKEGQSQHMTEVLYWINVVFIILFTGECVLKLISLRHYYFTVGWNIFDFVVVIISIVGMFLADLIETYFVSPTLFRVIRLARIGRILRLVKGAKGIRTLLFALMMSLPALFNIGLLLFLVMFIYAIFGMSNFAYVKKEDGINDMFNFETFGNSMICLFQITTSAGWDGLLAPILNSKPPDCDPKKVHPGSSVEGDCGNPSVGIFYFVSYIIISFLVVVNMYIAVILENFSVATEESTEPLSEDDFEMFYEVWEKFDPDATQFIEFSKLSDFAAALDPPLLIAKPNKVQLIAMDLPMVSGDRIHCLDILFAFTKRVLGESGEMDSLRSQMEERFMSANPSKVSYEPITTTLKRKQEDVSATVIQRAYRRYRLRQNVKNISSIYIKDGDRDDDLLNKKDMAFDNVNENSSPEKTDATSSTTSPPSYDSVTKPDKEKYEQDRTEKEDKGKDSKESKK
Chain of hNav1.7 (Q07699 19-218 partner): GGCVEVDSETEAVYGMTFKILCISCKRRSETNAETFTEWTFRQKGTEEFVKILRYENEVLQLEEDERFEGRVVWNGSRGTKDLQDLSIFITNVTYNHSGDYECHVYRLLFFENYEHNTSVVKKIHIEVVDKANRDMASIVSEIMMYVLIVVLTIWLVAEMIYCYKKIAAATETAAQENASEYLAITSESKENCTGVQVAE
Conditions: not given
As to `CS(=O)(=O)NC(=O)c1cc(C2CC2)c(CN2CCN(Cc3cc(Cl)cc(Cl)c3)CC2)cc1F` [Example 517, 5-cyclopropyl-4-((4-(3,5-dichlorobenzyl)piperazin-1-yl)methyl)-2-fluoro-N-(methylsulfonyl)benzamide, trifluoroacetic acid salt], the pIC50 is 7.82.

Compound `C[C@H]1CN(Cc2cc(F)c(C(=O)NS(=O)(=O)C3CC3)cc2C2CC2)CCN1[C@@H](C)c1cc(Cl)cc(Cl)c1` [Example 568, 5-cyclopropyl-N-(cyclopropylsulfonyl)-4-(((S)-4-((S)-1-(3,5-dichlorophenyl)ethyl)-3-methylpiperazin-1-yl)methyl)-2-fluorobenzamide] gave a pIC50 of 8.02.

As to `CS(=O)(=O)NC(=O)c1cc(C2CC2)c(O[C@@H]2CCCN(c3cc(Cl)cc(Cl)c3)C2)cc1F` [Example 44, (R)-5-cyclopropyl-4-((1-(3,5-dichlorophenyl)piperidin-3-yl)oxy)-2-fluoro-N-(methylsulfonyl)benzamide], the pIC50 was 8.44.

Consider `O=C(NS(=O)(=O)C1CC1)c1cc(C2CC2)c(CN2CCC(Oc3cc(C(F)(F)F)cc(Cl)c3F)CC2)cc1F` [Example 537, 4-((4-(3-chloro-2-fluoro-5-(trifluoromethyl)phenoxy)piperidin-1-yl)methyl)-5-cyclopropyl-N-(cyclopropylsulfonyl)-2-fluorobenzamide, trifluoroacetic acid salt], for which the pIC50 was 8.24.

Regarding `O=C(NS(=O)(=O)N1CCC1)c1cc(C2CC2)c(O[C@@H]2CCCN(Cc3ccc(F)cc3C(F)(F)F)C2)cc1F` [Example 36, (R)—N-(azetidin-1-ylsulfonyl)-5-cyclopropyl-2-fluoro-4-((1-(4-fluoro-2-(trifluoromethyl)benzyl)piperidin-3-yl)oxy)benzamide], the pIC50 is 8.44.

`CS(=O)(=O)NC(=O)c1cc(C2CC2)c(CN2CCC(Oc3cc(C(F)(F)F)c(Cl)cn3)CC2)cc1F` [Example 521, 4-((4-((5-chloro-4-(trifluoromethyl)pyridin-2-yl)oxy)piperidin-1-yl)methyl)-5-cyclopropyl-2-fluoro-N-(methylsulfonyl)benzamide, trifluoroacetic acid salt]: the pIC50 is 8.10.

The assay is the same for the next values; noted with them: read-out: Ligand Binding Assay; 100 pM [3H]compound, membranes with hNav1.7 and β1 subunit, 18 h, room temperature.
On to `CS(=O)(=O)NC(=O)c1cc(C2CC2)c(O[C@@H]2CCCN(Cc3cc(C(F)(F)F)cc(C4CC4)n3)C2)cc1F` [Example 305, (R)-5-cyclopropyl-4-((1-((6-cyclopropyl-4-(trifluoromethyl)pyridin-2-yl)methyl)piperidin-3-yl)oxy)-2-fluoro-N-(methylsulfonyl)benzamide], for which the pIC50 is 8.41.

For `COC[C@H](c1cc(Cl)cc(Cl)c1)N1CCC(C)(COc2cc(F)c(C(=O)NS(C)(=O)=O)cc2C2CC2)CC1` (single isomer, unassigned) [Example 173], the pIC50 is 8.41.

As for `C[C@H](c1ccc(Cl)c(Cl)c1)N1CCC(C)(COc2cc(F)c(C(=O)NS(C)(=O)=O)cc2C2CC2)CC1` (single isomer, unassigned) [Example 218], the pIC50 is 8.11.

In the case of `CC1(COc2cc(F)c(C(=O)NS(C)(=O)=O)cc2C2CC2)CCN(Cc2cc(Cl)cc(C(F)(F)F)c2)CC1` [Example 140, 4-((1-(3-chloro-5-(trifluoromethyl)benzyl)-4-methylpiperidin-4-yl)methoxy)-5-cyclopropyl-2-fluoro-N-(methylsulfonyl)benzamide], the pIC50 was 8.46.

`CS(=O)(=O)NC(=O)c1cc(C2CC2)c(OCCC2CCN(Cc3cc(Cl)cc(Cl)c3)CC2)cc1F` [Example 302, 5-cyclopropyl-4-(2-(1-(3,5-dichlorobenzyl)piperidin-4-yl)ethoxy)-2-fluoro-N-(methylsulfonyl)benzamide, trifluoroacetic acid salt]: the pIC50 was 8.24.

Turning to `CS(=O)(=O)NC(=O)c1cc(C2CC2)c(OCC2CCN(Cc3ccc(Br)cc3F)CC2)cc1F` [Example 589, 4-((1-(4-bromo-2-fluorobenzyl)piperidin-4-yl)methoxy)-5-cyclopropyl-2-fluoro-N-(methylsulfonyl)benzamide], the pIC50 is 7.96.

Take `CS(=O)(=O)NC(=O)c1cc(C2CC2)c(O[C@@H]2CCCN(Cc3ccccc3-c3ccccc3)C2)cc1F` [Example 442, (R)-4-((1-([1,1′-biphenyl]-2-ylmethyl)piperidin-3-yl)oxy)-5-cyclopropyl-2-fluoro-N-(methylsulfonyl)benzamide, trifluoroacetic acid salt]: the pIC50 was 8.51.

Consider `COCC(c1cc(Cl)cc(Cl)c1)N1CC(COc2cc(F)c(C(=O)NS(C)(=O)=O)cc2C2CC2)C1` (stereo not drawn) [Example 91, 5-Cyclopropyl-4-((1-(1-(3,5-dichlorophenyl)-2-methoxyethyl)azetidin-3-yl)methoxy)-2-fluoro-N-(methylsulfonyl)benzamide], for which the pIC50 was 7.83.

In the case of `CS(=O)(=O)NC(=O)c1cc(C2CC2)c(O[C@@H]2CCCN(Cc3cc(Cl)cc(Cl)c3)C2)cc1F` [Example 440], the pIC50 was 9.52.

In the case of `CS(=O)(=O)NC(=O)c1cc(C2CC2)c(OCC2CN(S(=O)(=O)c3ccccc3)C2)cc1F` [Example 129, 5-Cyclopropyl-2-fluoro-N-(methylsulfonyl)-4-((1-(phenylsulfonyl)-azetidin-3-yl)methoxy)benzamide], the pIC50 is 5.86.

On to `O=C(NS(=O)(=O)C1CC1)c1cc(C2CC2)c(OCC2CCN(C(c3ccc(F)cc3)c3ccc(F)cc3)CC2)cc1F` [Example 363, 4-((1-(bis(4-fluorophenyl)methyl)piperidin-4-yl)methoxy)-5-cyclopropyl-N-(cyclopropylsulfonyl)-2-fluorobenzamide, trifluoroacetic acid salt], for which the pIC50 is 8.24.

`C[C@@H](c1ccc(Cl)cc1Cl)N1CCC(C)(COc2cc(F)c(C(=O)NS(C)(=O)=O)cc2C2CC2)CC1` [Example 280, (S)-5-cyclopropyl-4-((1-(1-(2,4-dichlorophenyl)ethyl)-4-methylpiperidin-4-yl)methoxy)-2-fluoro-N-(methylsulfonyl)benzamide]: the pIC50 was 8.09.

For `O=C(NS(=O)(=O)N1CCC1)c1cc(C2CC2)c(CN2CCO[C@H](Cc3ccc(F)cc3Cl)C2)cc1F` [Example 468, (R)-N-(azetidin-1-ylsulfonyl)-4-((2-(2-chloro-4-fluorobenzyl)morpholino)methyl)-5-cyclopropyl-2-fluorobenzamide, trifluoroacetic acid salt], the pIC50 is 7.95.

As for `CS(=O)(=O)NC(=O)c1cc(C2CC2)c(OCC2CCN(S(C)(=O)=O)CC2)cc1F` [Example 395, 5-cyclopropyl-2-fluoro-N-(methylsulfonyl)-4-((1-(methylsulfonyl)piperidin-4-yl)methoxy)benzamide], the pIC50 was < 5.00.

Regarding `CS(=O)(=O)NC(=O)c1cc(C2CC2)c(OCC2CCN(C(c3cc(Cl)cc(Cl)c3)C(F)F)CC2)cc1F` (stereo in doubt) [Example 225, (S)-5-cyclopropyl-4-((1-(1-(3,5-dichlorophenyl)-2,2-difluoroethyl)piperidin-4-yl)methoxy)-2-fluoro-N-(methylsulfonyl)benzamide], the pIC50 was 7.77.

In the case of `CS(=O)(=O)NC(=O)c1cc(C2CC2)c(O[C@@H]2CCCN(C(=O)c3cc(Cl)cc(Cl)c3)C2)cc1F` [Example 221, (R)-5-cyclopropyl-4-((1-(3,5-dichlorobenzoyl)piperidin-3-yl)oxy)-2-fluoro-N-(methylsulfonyl)benzamide], the pIC50 was 5.74.

Take `C[C@@H](c1ccccc1)N1CC(COc2cc(F)c(C(=O)NS(C)(=O)=O)cc2C2CC2)C1` [Example 84, (S)-5-Cyclopropyl-2-fluoro-N-(methylsulfonyl)-4-((1-(1-phenylethyl)azetidin-3-yl)methoxy)benzamide]: the pIC50 is 5.91.

As to `Cc1cc(C)cc(CN2CCC[C@@H](Oc3cc(F)c(C(=O)NS(C)(=O)=O)cc3C3CC3)C2)c1` [Example 436, (R)-5-cyclopropyl-4-((1-(3,5-dimethylbenzyl)piperidin-3-yl)oxy)-2-fluoro-N-(methylsulfonyl)benzamide, trifluoroacetic acid salt], the pIC50 is 8.27.

On to `CS(=O)(=O)NC(=O)c1cc(C2CC2)c(O[C@@H]2CCCN([C@H](c3ccc(F)cc3Cl)C(F)(F)F)C2)cc1F` (single isomer, unassigned) [Example 297], for which the pIC50 is 7.97.

Take `C[C@@H](c1ccc(Cl)c(C2CC2)n1)N1CCC[C@@H](Oc2cc(F)c(C(=O)NS(C)(=O)=O)cc2C2CC2)C1` [Example 310, 4-(((R)-1-((S)-1-(5-chloro-6-cyclopropylpyridin-2-yl)ethyl)piperidin-3-yl)oxy)-5-cyclopropyl-2-fluoro-N-(methylsulfonyl)benzamide]: the pIC50 is 8.64.

Regarding `O=C(NS(=O)(=O)C1CC1)c1cc(C2CC2)c(OCC2(F)CCN(Cc3cc(C(F)(F)F)cc(Cl)c3F)CC2)cc1F` [Example 347, 4-((1-(3-chloro-2-fluoro-5-(trifluoromethyl)benzyl)-4-fluoropiperidin-4-yl)methoxy)-5-cyclopropyl-N-(cyclopropylsulfonyl)-2-fluorobenzamide, trifluoroacetic acid salt], the pIC50 is 8.20.

Consider `CCS(=O)(=O)NC(=O)c1cc(C2CC2)c(OCC2(C)CN(c3ncc(C(F)(F)F)cc3Cl)C2)cc1F` [Example 482, 4-((1-(3-chloro-5-(trifluoromethyl)pyridin-2-yl)-3-methylazetidin-3-yl)methoxy)-5-cyclopropyl-N-(ethylsulfonyl)-2-fluorobenzamide], for which the pIC50 is 8.48.

In the case of `C[C@@H]1CC[C@@H](COc2cc(F)c(C(=O)NS(C)(=O)=O)cc2C2CC2)CN1Cc1cc(Cl)cc(Cl)c1` [Example 341, 5-cyclopropyl-4-(((3R,6R)-1-(3,5-dichlorobenzyl)-6-methylpiperidin-3-yl)methoxy)-2-fluoro-N-(methylsulfonyl)benzamide, trifluoroacetic acid salt], the pIC50 was 8.36.

On to `CC1(COc2cc(F)c(C(=O)NS(C)(=O)=O)cc2C2CC2)CCN(Cc2ccc(F)cc2C(F)(F)F)CC1` [Example 130, 5-cyclopropyl-2-fluoro-4-((1-(4-fluoro-2-(trifluoromethyl)benzyl)-4-methylpiperidin-4-yl)methoxy)-N-(methylsulfonyl)benzamide], for which the pIC50 was 8.46.
